molecular target: Arabidopsis thaliana SHMT; assay: SHMT activity assay (ED50 SHMT), coupled with N5,N10-CH2-THF dehydrogenase, NADH at 340 nm; assay type: biochemical; settings: Table 2; values given as upper bounds
Outline: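 His-tagged SHMT purified on Ni-NTA. NADH formation followed at 340 nm for 30 min; ED50 from inhibition of initial velocity.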

SMILES	EC50 [nM]
Cc1n[nH]c2c1C(c1cc(C#N)cc(-c3ccc(C(=O)O)c(F)c3)c1)(C1CCC1)C(C#N)=C(N)O2 (centres unmarked) [Compound 2.560]	< 10
COc1cc(-c2cc(C#N)cc(C3(C4CCC4)C(C#N)=C(N)Oc4[nH]nc(C)c43)c2)ccc1C(=O)O (centres unmarked) [Compound 2.561]	< 10
Cc1n[nH]c2c1C(c1cc(C#N)cc(-c3ccc(C(=O)O)c(Cl)c3)c1)(C1CCC1)C(C#N)=C(N)O2 (centres unmarked) [Compound 2.562]	< 10
COc1cc(C(=O)O)cc(-c2cc(C#N)cc(C3(C4CCC4)C(C#N)=C(N)Oc4[nH]nc(C)c43)c2)c1 (centres unmarked) [Compound 2.563]	< 10
Cc1n[nH]c2c1C(c1cc(C#N)cc(-c3cc(C(=O)O)cc(C(=O)O)c3)c1)(C1CCC1)C(C#N)=C(N)O2 (centres unmarked) [Compound 2.564]	< 1000
Cc1n[nH]c2c1C(c1cc(C#N)cc(-c3ccc(C(=O)O)c(C(=O)O)c3)c1)(C1CCC1)C(C#N)=C(N)O2 (centres unmarked) [Compound 2.565]	< 10
Cc1n[nH]c2c1C(c1cc(C#N)cc(-c3cc(C(=O)O)cc([N+](=O)[O-])c3)c1)(C1CCC1)C(C#N)=C(N)O2 (centres unmarked) [Compound 2.566]	< 10
Cc1n[nH]c2c1C(c1cc(Cl)c(O)c(C#N)c1)(C1CCC1)C(C#N)=C(N)O2 (centres unmarked) [Compound 2.567]	< 100
Cc1n[nH]c2c1C(c1cc(Cl)cc(CC#N)c1)(C1CCC1)C(C#N)=C(N)O2 (centres unmarked) [Compound 2.568]	< 10
Cc1n[nH]c2c1C(c1cc(Cl)cc(Cc3nnn[nH]3)c1)(C1CCC1)C(C#N)=C(N)O2 (centres unmarked) [Compound 2.570]	< 10
COC(=O)c1cc(C(=O)O)cc(-c2cc(C#N)cc(C3(C4CCC4)C(C#N)=C(N)Oc4[nH]nc(C)c43)c2)c1 (centres unmarked) [Compound 2.571]	< 100
COC(=O)c1cc(-c2cc(C#N)cc(C3(C4CCC4)C(C#N)=C(N)Oc4[nH]nc(C)c43)c2)ccc1C(=O)O (centres unmarked) [Compound 2.572]	< 100
CCc1n[nH]c2c1C(CC)(c1cc(Cl)cc(C#N)c1)C(C#N)=C(N)O2 (centres unmarked) [Compound 2.573]	< 100
CCc1n[nH]c2c1C(CC)(c1cc(C#N)cc(C(F)(F)F)c1)C(C#N)=C(N)O2 (centres unmarked) [Compound 2.574]	< 10
CCCC1(c2cc(C#N)cc(C(F)(F)F)c2)C(C#N)=C(N)Oc2[nH]nc(CC)c21 (centres unmarked) [Compound 2.575]	< 10
CCc1n[nH]c2c1C(CC)(c1cc(Br)cc(C#N)c1)C(C#N)=C(N)O2 (centres unmarked) [Compound 2.576]	< 100
CCCC1(c2cc(Cl)cc(C#N)c2)C(C#N)=C(N)Oc2[nH]nc(CC)c21 (centres unmarked) [Compound 2.577]	< 100
CCCC1(c2cc(Br)cc(C#N)c2)C(C#N)=C(N)Oc2[nH]nc(CC)c21 (centres unmarked) [Compound 2.578]	< 100
CCCC1(c2cc(C#N)cc(C#N)c2)C(C#N)=C(N)Oc2[nH]nc(CC)c21 (centres unmarked) [Compound 2.579]	< 100
CCC1(c2cc(Cl)cc(C#N)c2)C(C#N)=C(N)Oc2[nH]nc(C(C)C)c21 (centres unmarked) [Compound 2.580]	< 100
CCC1(c2cc(C#N)cc(C(F)(F)F)c2)C(C#N)=C(N)Oc2[nH]nc(C(C)C)c21 (centres unmarked) [Compound 2.581]	< 100
CCCC1(c2cc(C#N)cc(C(F)(F)F)c2)C(C#N)=C(N)Oc2[nH]nc(C(C)C)c21 (centres unmarked) [Compound 2.582]	< 10
CCC1(c2cc(Br)cc(C#N)c2)C(C#N)=C(N)Oc2[nH]nc(C(C)C)c21 (centres unmarked) [Compound 2.583]	< 10
CCCC1(c2cc(Cl)cc(C#N)c2)C(C#N)=C(N)Oc2[nH]nc(C(C)C)c21 (centres unmarked) [Compound 2.584]	< 10

The next lines start with the values.

EC50 [nM]	SMILES
< 100	CCCC1(c2cc(Br)cc(C#N)c2)C(C#N)=C(N)Oc2[nH]nc(C(C)C)c21 (centres unmarked) [Compound 2.585]
< 1000	CCCC1(c2cc(C#N)cc(C#N)c2)C(C#N)=C(N)Oc2[nH]nc(C(C)C)c21 (centres unmarked) [Compound 2.586]
< 1000	CCC1(c2cc(Cl)cc(C#N)c2)C(C#N)=C(N)Oc2[nH]nc(COC)c21 (centres unmarked) [Compound 2.587]
< 100	CCC1(c2cc(C#N)cc(C(F)(F)F)c2)C(C#N)=C(N)Oc2[nH]nc(COC)c21 (centres unmarked) [Compound 2.588]
< 100	CCCC1(c2cc(C#N)cc(C(F)(F)F)c2)C(C#N)=C(N)Oc2[nH]nc(COC)c21 (centres unmarked) [Compound 2.589]
< 1000	CCC1(c2cc(Br)cc(C#N)c2)C(C#N)=C(N)Oc2[nH]nc(COC)c21 (centres unmarked) [Compound 2.590]
< 10000	CCCC1(c2cc(Cl)cc(C#N)c2)C(C#N)=C(N)Oc2[nH]nc(COC)c21 (centres unmarked) [Compound 2.591]
< 1000	CCCC1(c2cc(Br)cc(C#N)c2)C(C#N)=C(N)Oc2[nH]nc(COC)c21 (centres unmarked) [Compound 2.592]
< 10000	CCCC1(c2cc(C#N)cc(C#N)c2)C(C#N)=C(N)Oc2[nH]nc(COC)c21 (centres unmarked) [Compound 2.593]
< 1000	Cc1n[nH]c2c1C(c1ccc(C(=O)O)c(Cl)c1)(C1CCC1)C(C#N)=C(N)O2 (centres unmarked) [Compound 2.594]
< 10	Cc1n[nH]c2c1C(c1cc(Cl)cc(-c3ccc(NS(=O)(=O)C(F)(F)F)cc3)c1)(C1CCC1)C(C#N)=C(N)O2 (centres unmarked) [Compound 2.595]
< 10	Cc1n[nH]c2c1C(c1cc(Cl)cc(Oc3cc(F)c(O)c(F)c3)c1)(C1CCC1)C(C#N)=C(N)O2 (centres unmarked) [Compound 2.596]
< 100	Cc1n[nH]c2c1C(c1cc(Cl)cc(Oc3ccc(O)c(C(F)(F)F)c3)c1)(C1CCC1)C(C#N)=C(N)O2 (centres unmarked) [Compound 2.597]
< 1000	CCC1(c2cc(Cl)cc(C#N)c2)C(C#N)=C(N)Oc2[nH]nc(OC)c21 (centres unmarked) [Compound 2.598]
< 1000	CCC1(c2cc(C#N)cc(C(F)(F)F)c2)C(C#N)=C(N)Oc2[nH]nc(OC)c21 (centres unmarked) [Compound 2.599]
< 1000	CCCC1(c2cc(C#N)cc(C(F)(F)F)c2)C(C#N)=C(N)Oc2[nH]nc(OC)c21 (centres unmarked) [Compound 2.600]
< 1000	CCC1(c2cc(Br)cc(C#N)c2)C(C#N)=C(N)Oc2[nH]nc(OC)c21 (centres unmarked) [Compound 2.601]
< 10000	CCCC1(c2cc(Cl)cc(C#N)c2)C(C#N)=C(N)Oc2[nH]nc(OC)c21 (centres unmarked) [Compound 2.602]
< 1000	CCCC1(c2cc(Br)cc(C#N)c2)C(C#N)=C(N)Oc2[nH]nc(OC)c21 (centres unmarked) [Compound 2.603]
< 1000	CCCC1(c2cc(C#N)cc(C#N)c2)C(C#N)=C(N)Oc2[nH]nc(OC)c21 (centres unmarked) [Compound 2.604]
< 10	CCC1(c2cc(Cl)cc(C#N)c2)C(C#N)=C(N)Oc2[nH]nc(C(F)F)c21 (centres unmarked) [Compound 2.605]
< 10	CCC1(c2cc(C#N)cc(C(F)(F)F)c2)C(C#N)=C(N)Oc2[nH]nc(C(F)F)c21 (centres unmarked) [Compound 2.606]
< 10	CCC1(c2cc(Br)cc(C#N)c2)C(C#N)=C(N)Oc2[nH]nc(C(F)F)c21 (centres unmarked) [Compound 2.607]
< 10	CCCC1(c2cc(Cl)cc(C#N)c2)C(C#N)=C(N)Oc2[nH]nc(C(F)F)c21 (centres unmarked) [Compound 2.608]
< 100	CCCC1(c2cc(Br)cc(C#N)c2)C(C#N)=C(N)Oc2[nH]nc(C(F)F)c21 (centres unmarked) [Compound 2.609]
< 100	CCCC1(c2cc(C#N)cc(C#N)c2)C(C#N)=C(N)Oc2[nH]nc(C(F)F)c21 (centres unmarked) [Compound 2.610]
< 10	Cc1n[nH]c2c1C(c1cc(C#N)cc(N(C)C(=O)C(C)C)c1)(C1CCC1)C(C#N)=C(N)O2 (centres unmarked) [Compound 2.613]
< 10	CCCCC(=O)N(C)c1cc(C#N)cc(C2(C3CCC3)C(C#N)=C(N)Oc3[nH]nc(C)c32)c1 (centres unmarked) [Compound 2.614]
< 10	COc1ccc(C2(C(C)(C)F)C(C#N)=C(N)Oc3[nH]nc(C)c32)cc1Cl (centres unmarked) [Compound 2.620]

From US9480259B2, “Pyrazolopyrans having herbicidal and pharmaceutical properties” (BASF SE, priority 2012, dated 2016)
